Earlier results, collected in patent US20100278946A1, “HERBAL COMPOSITIONS COMPRISING PLANT MATERIAL OF ARTEMISIA HERBA-ALBA (ASSO) ASTERACEAE AND/OR EXTRACTS THEREOF” (priority 2007, published 2010).
Where two headings read alike, the source gives them in different places.

Tests used:
[1] = test system: noncompetitive blocker site of the GABA gated chloride channel
[2] = test system: gamma-aminobutyric acid (GABA) type A receptor; conditions: rat dorsal root ganglion neurons
[3] = 2.5 min after administration of alpha-thujone
[4] = 30 min after administration of alpha-thujone, 40-60 mg/kg

CC1C(=O)CC2(C(C)C)CC12 (stereo not drawn) [Beta-thujone, beta-thujone]
potency relative to alpha-thujone (fold less potent) ([1]; [3H]EBOB assay): 2.3 fold | toxicity compared with alpha-thujone (mice; mice (Rice and Wilson, 1976) and Drosophila): less toxic

CC(C)[C@]12CC(=O)[C@H](C)[C@H]1C2 [alpha-thujone]
mode of inhibition of EBOB binding [1]: competitive inhibitor | potency compared with 7-hydroxy-alpha-thujone (fold more potent) ([1]; [3H]EBOB binding assay): 56 fold | level in the brain [3]: 11 ppm | level in the brain [4]: 0.3-1.0 ppm | effect on GABA-induced peak currents [2]: suppressed | time to death after tonic convulsion (mice; mice at the higher dose (60 mg/kg)): ≤ 1 min | mortality (mice; mice, dose of 30 mg/kg): no death | mortality (mice; mice, dose of 60 mg/kg): 100% | i.p. LD50 (mice; mice, i.p.): about 45 mg/kg

CN1C(=O)CN=C(c2ccccc2)c2cc(Cl)ccc21 [diazepam]
survival of mice given an otherwise lethal dose of alpha-thujone (mice; intraperitoneal administration 15 min before alpha-thujone at 100 mg/kg): almost all of the mice surviving

CC1C(=O)CC2(C(C)(C)O)CC12 (stereo not drawn) [7-hydroxy-alpha-thujone]
level in the brain [3]: 29 ppm | level in the brain [4]: 1.5-8.4 ppm
